Reference: ChEMBL document CHEMBL5120754, “Structural modification aimed for improving solubility of lead compounds in early phase drug discovery” (Bioorg Med Chem, 2022)
Values after ≈ are worked out from the molar mass of the structure shown.

Experiments:
[1] = buffer
[2] = molecular target: T1, Peroxisome proliferator-activated receptor delta (Homo sapiens, UniProt Q03181); test: Partial agonist activity at PPARdelta (unknown origin)
T1 sequence (Q03181 whole entry): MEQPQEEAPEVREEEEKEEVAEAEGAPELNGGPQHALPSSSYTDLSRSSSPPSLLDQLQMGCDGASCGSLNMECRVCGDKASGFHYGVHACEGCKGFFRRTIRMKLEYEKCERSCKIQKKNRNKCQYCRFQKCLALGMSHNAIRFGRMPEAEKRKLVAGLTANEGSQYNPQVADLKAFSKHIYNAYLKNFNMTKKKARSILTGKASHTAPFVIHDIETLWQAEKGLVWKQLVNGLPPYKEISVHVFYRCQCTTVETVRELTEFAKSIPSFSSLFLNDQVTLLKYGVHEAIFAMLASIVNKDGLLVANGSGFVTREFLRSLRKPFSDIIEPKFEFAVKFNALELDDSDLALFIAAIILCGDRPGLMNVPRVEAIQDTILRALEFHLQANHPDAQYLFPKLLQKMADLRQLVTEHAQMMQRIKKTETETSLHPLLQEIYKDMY

[3] = physchem; settings: buffer
[4] = Lipophilicity, logD of compound; assay type: physicochemical; settings: octanol/water
[5] = physchem; settings: octanol/water
[6] = Permeability of compound in human Caco-2 cells; assay type: ADME, cell-based; settings: read-out: permeability
[7] = test system: Human immunodeficiency virus 1; test: Antiviral activity against HIV-1; assay type: functional, organism-based
[8] = test system: Mycobacterium tuberculosis; test: microbe, parasite or virus in culture
[9] = molecular target: Plasmepsin II (Plasmodium falciparum, UniProt P46925); test: Inhibition of Plasmodium falciparum 3D7 plasmepsin II
Plasmepsin II, sequence (P46925 whole entry): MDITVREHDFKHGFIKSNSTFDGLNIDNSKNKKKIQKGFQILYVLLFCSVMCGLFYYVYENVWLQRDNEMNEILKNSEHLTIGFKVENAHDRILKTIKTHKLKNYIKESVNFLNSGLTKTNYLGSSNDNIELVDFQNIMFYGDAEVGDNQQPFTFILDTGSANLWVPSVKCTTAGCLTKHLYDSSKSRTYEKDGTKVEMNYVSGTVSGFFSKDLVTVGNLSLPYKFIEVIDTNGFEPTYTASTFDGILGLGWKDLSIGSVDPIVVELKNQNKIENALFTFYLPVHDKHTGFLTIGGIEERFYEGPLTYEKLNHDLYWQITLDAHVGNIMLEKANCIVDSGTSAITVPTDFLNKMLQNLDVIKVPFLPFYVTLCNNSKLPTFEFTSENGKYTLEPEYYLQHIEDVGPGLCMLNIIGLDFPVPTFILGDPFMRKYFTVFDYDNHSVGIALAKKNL

[10] = test system: MCF7; test: Antiproliferative activity against ER-positive human MCF7 cells after 48 hrs by MTT assay; assay type: functional, cell-based; settings: MCF7, 48 h

Structure (SMILES)	solubility thermodynamic [3]	also measured
CCCCOc1ccc(-c2cccc(C(=O)O)c2)cc1CNC(=O)c1ccc(C(F)(F)F)cc1F		Therm_solubility [1]: 1 µg/mL; EC50 [2]: 170 nM
CCn1nc(-c2cccc(Cl)c2)nc2c(=O)n(C)c(=O)nc1-2	28.5 µM	
CCCN(CCOC)c1cc(C)nc2c(-c3ccc(OC)cc3OC)c(C)nn12	10000 µg/mL	logD [4]: 2.78
CCCCOc1ccc(-c2cncc(C(=O)O)c2)cc1CNC(=O)c1ccc(C(F)(F)F)cc1F	7.6 µg/mL	EC50 [2]: 220 nM
CCCCOc1ccc(-c2c(C)ncc(C(=O)O)c2C)cc1CNC(=O)c1ccc(C(F)(F)F)cc1F		EC50 [2]: 76 nM
COc1cc2[nH]c(C)c(-c3ccccc3)c(=O)c2cc1Cl	6 µM	logD [4]: 1.65
CC(=O)NC[C@@H]1OC(=O)N2c3ccc(-c4ccc(C#N)nc4)cc3OC[C@@H]12	10 µg/mL	
C=CC(=O)Nc1cccc(N2C(=O)N(Cc3ccccc3)Cc3cnc(Nc4ccc(N5CCN(C)CC5)cc4OC)nc32)c1		Therm_solubility [1]: 4000 µg/mL
Cc1c(-c2ccc(Cc3ccc(OC(F)(F)F)cc3)cc2)[nH]c2cc(Cl)ccc2c1=O		logP [5]: 6.4
Cc1c(-c2ccc(-c3ccc(OC(F)(F)F)cc3)nc2)[nH]c2ccccc2c1=O		logP [5]: 4.2
CC(C)(C)OC(=O)N1CCN(c2ncc(OCc3ccc(S(C)(=O)=O)cc3)cn2)CC1	0.03 µM	
CC(C)(C)OC(=O)N1CCN(c2ncc(OCc3ccncc3C#N)cn2)CC1	24 µM	logD [4]: 3.3
FC(F)(F)c1c(N2CCC(c3ccccc3)CC2)ccn2c(CC3CC3)nnc12		logP [5]: 4.6; Papp [6]: 12 ×10⁻⁶ cm/s
C/C(=C1/C(=O)Nc2ccc(NC(N)=O)cc21)c1cc(CNC(=O)C2CCNCC2)c[nH]1	17 µg/mL	
CN(C)CCNC(=O)c1cccc(-c2c[nH]c(/C=C3\C(=O)Nc4ccc(NC(N)=O)cc43)c2)c1	13 µg/mL	
COc1ccc(-c2oc3cc(O[C@@H]4O[C@H](CO[C@@H]5O[C@@H](C)[C@H](O)[C@@H](O)[C@H]5O)[C@@H](O)[C@H](O)[C@H]4O)cc(O)c3c(=O)c2Br)cc1O	100000 µg/mL	logP [5]: 0.93
O=C(C(=O)N1CCN(C(=O)c2ccccc2)CC1)c1c[nH]c2c(-n3ccnn3)ncc(F)c12	7 µg/mL	EC50 [7]: 0.006 nM
COc1c(C(=O)Nc2ccc(NS(C)(=O)=O)cc2)cc(N2CCC(=O)NC2=O)cc1C(C)(C)C	1500 µg/mL	
O=C(Nc1nnc(C2CC2)o1)NC12CC3CC(CC(C3)C1)C2	38.3 µg/mL	MIC [8]: 12.5 µg/mL (≈ 41.3 µM)
Cn1cc(NC(=O)NC23CC4CC(CC(C4)C2)C3)cn1	41.1 µg/mL	MIC [8]: 50 µg/mL (≈ 182 µM)
Cc1cc(NC(=O)NC23CC4CC(CC(C4)C2)C3)no1	25.9 µg/mL	MIC [8]: 27 µg/mL (≈ 98.1 µM)
NC(=O)NCCSc1nc(N)nc(-c2c(Cl)cc3c4c(cccc24)COC3)n1	773 µM	
Cc1cc2ccccc2n1CCNC(=O)c1ccc(-c2nnn[nH]2)cc1		Therm_solubility [1]: 0.257 µM

Structure (SMILES)	solubility thermodynamic [3]	also measured
COc1cnc(-n2cnc(C)n2)c2[nH]cc(C(=O)C(=O)N3CCN(C(=O)c4ccccc4)CC3)c12	147 µg/mL	
CN(C)CCn1cc(C(=O)NC23CC4CC(CC(C4)C2)C3)c(=O)c2ccc(F)cc21	5.6 µg/mL	
Nc1ncc(-c2nc(N3CCOCC3)nc3c2CCN3C(=O)Nc2ccccc2)cn1	3 µg/mL	
COc1ccc(CNc2c3c(nc4ccc(C#N)cc24)CCN(C(C)=O)C3)cc1Cl	500 µM	
CCCCCc1ccc(-c2cc(CCC(=O)O)c3c(=O)n(CC4CCCO4)c(N)nc3c2)cc1 (stereo unspecified)	0.1 µg/mL	IC50 [9]: 50 nM
Nc1nc2cc(-c3ccc(CCCc4ccccc4)cc3)cc(CCC(=O)O)c2c(=O)n1CC1CCCO1 (stereo unspecified)		Therm_solubility [1]: 0.17 µg/mL; IC50 [9]: 16700 nM
COc1cc2c(cc1OC)CN(C(=O)/C=C/c1c(-c3ccccc3)n(C)c3ncccc13)CC2		Therm_solubility [1]: 141 µg/mL
NC(=O)Nc1ccc2c(c1)/C(=C/c1ccc[nH]1)C(=O)N2	2000 µg/mL	
COc1cc(NCc2cc3cc(Cl)ccc3[nH]c2=O)ccc1C#N	0.43 µM	
COc1cc(NCc2cc3cc(C)c(C)cc3[nH]c2=O)ccc1-n1cnnn1	0.04 µM	
Cc1cc(/C=C/C#N)cc(C)c1Oc1nc(Nc2ccc(CN3CCN(S(C)(=O)=O)CC3)cc2)nc(N)c1Br	30.9 µg/mL	EC50 [7]: 7.5 nM
NC(=O)Nc1ccc2c(c1)/C(=C/c1cc(-c3ccccn3)c[nH]1)C(=O)N2	29 µg/mL	
CC1CC(=O)Oc2c1ccc1c2[C@@H](OC(=O)[C@@]23CC[C@@](C)(C(=O)O2)C3(C)C)[C@@H](OC(=O)[C@@]23CC[C@@](C)(C(=O)O2)C3(C)C)C(C)(C)O1 (stereo partly specified)		logP [5]: 4.82; EC50 [7]: 1.5 nM
Nc1nc2cc(-c3ccc(CCCc4ccccc4)cc3)ccc2c(=O)n1CC1CCC(c2ccccc2)O1 (stereo unspecified)	< 0.01 µg/mL	IC50 [9]: 3200 nM
C=CCNc1nc2c(s1)CC(C)(C)[C@H]1[C@H](O)[C@@]3(O)OC[C@@]21[C@@H]1CC[C@H]2C(=C)C(=O)[C@]13[C@@H]2O	81200 µg/mL	IC50 [10]: 200 nM
C=C1C(=O)[C@]23[C@H](O)[C@H]1CC[C@H]2[C@@]12CO[C@]3(O)[C@@H](O)[C@@H]1C(C)(C)Cc1sc(C)nc12	4400 µg/mL	IC50 [10]: 2600 nM
C[C@H]1[C@H](COP(=O)([O-])[O-])OC(=O)N1c1ccc(-c2ccc([C@@H]3CN(C)C(=O)O3)nc2)cc1O.[Na+].[Na+]	227000 µg/mL	
CC1c2ccc3c(c2OC(=O)C1CO)[C@@H](OC(=O)[C@@]12CC[C@@](C)(C(=O)O1)C2(C)C)[C@@H](OC(=O)[C@@]12CC[C@@](C)(C(=O)O1)C2(C)C)C(C)(C)O3 (stereo partly specified)		logP [5]: 3.62; EC50 [7]: 4 nM
CN1C(=O)CCC(N2C(=O)c3ccccc3C2=O)C1=O (stereo unspecified)	276 µg/mL	
Cc1sc(-c2ccccc2)nc1CCOc1ccc(CC(Nc2ccccc2C(=O)c2ccccc2)C(=O)O)cc1 (stereo unspecified)	1 µg/mL	
COCCCc1nc(CCOc2ccc(CC(Nc3ccccc3C(=O)c3ccccc3)C(=O)O)cc2)c(C)s1 (stereo unspecified)	210 µg/mL	
CCC1(O)C(=O)OCc2c1cc1n(c2=O)Cc2c-1nc1ccc(O)cc1c2CN(C)C (stereo unspecified)	1000 µg/mL	
CCCCCc1ccc(-c2cc(-c3ccc(C(=O)O)cc3)c3c(=O)n(CC4CCC(c5ccccc5)O4)c(N)nc3c2)cc1 (stereo unspecified)	0.01 µg/mL	IC50 [9]: 740 nM

Structure (SMILES)	solubility thermodynamic [3]	also measured
O=c1nc2n(CCCC(F)(F)F)nc(-c3cccc(C(F)(F)F)c3)nc-2c(=O)n1CCC1CC1	200 µM	
C=C1C(=O)[C@]23[C@H](O)[C@H]1CC[C@H]2[C@@]12CO[C@]3(O)[C@@H](O)[C@@H]1C(C)(C)Cc1sc(NC)nc12	42400 µg/mL	IC50 [10]: 1300 nM
Cc1nc(N2CCN(c3ncc(OCc4ccncc4C#N)cn3)CC2)no1		logD [4]: 4
CCCOc1ccc(CC(Cc2ccccc2)C(=O)O)cc1CNC(=O)c1ccc(C23CC4CC(CC(C4)C2)C3)cc1 (stereo unspecified)	1 µg/mL	
Cc1sc(N2CCNCC2)nc1CCOc1ccc(CC(Nc2ccccc2C(=O)c2ccccc2)C(=O)O)cc1 (stereo unspecified)	10000 µg/mL	
O=C1NC(c2ccccc2)(c2ccccc2)C(=O)N1COP(=O)([O-])O.[Na+]	142000 µg/mL	
Cc1sc(N2CCOCC2)nc1CCOc1ccc(CC(Nc2ccccc2C(=O)c2ccccc2)C(=O)O)cc1 (stereo unspecified)	180 µg/mL	
CCCCCn1cc(C(=O)NC23CC4CC(CC(C4)C2)C3)c(=O)c2ccc(F)cc21	0.014 µg/mL	
CCCCCCCc1c(C)nc2cc(OC)ccc2c1O	2 µM	logD [4]: 3.69
O=c1cc(-c2c(F)cccc2F)oc2ccc3ccccc3c12	153 µg/mL	
Oc1nc2cc(Cl)c(Cl)c(Cn3cncn3)c2nc1O	10 µg/mL	
COc1ccc2c3c(c4cc(OC)c(OC)cc4c2c1)C[C@H]1CCCN1C3 [(-)-ANTOFINE]		Therm_solubility [1]: 1 µg/mL
CC(=O)Nc1nc2c(Oc3cc(-c4ccc(C(F)(F)F)cc4)ncn3)cccc2s1 [AMG-517]	1 µg/mL	
O=C(NCCN1CCCC1)c1cc(-c2ccc(CN3CCOCC3)cc2)nc2ccc(F)cc12 [CABAMIQUINE]	216 µM	
c1cn2cc(-c3ccc4cn[nH]c4c3)nc(Nc3ccc(N4CCOCC4)cc3)c2n1 [ENTOSPLETINIB]	28 µg/mL	
Cc1cc(C#N)cc(C)c1Oc1nc(Nc2ccc(C#N)cc2)nc(N)c1Br [ETRAVIRINE]		Therm_solubility [1]: 1 µg/mL
COc1cnc(-n2cnc(C)n2)c2c1c(C(=O)C(=O)N1CCN(C(=O)c3ccccc3)CC1)cn2COP(=O)(O)O [FOSTEMSAVIR]	11000 µg/mL	
C=C1C(=O)[C@]23[C@H](O)[C@H]1CC[C@H]2[C@@]12CO[C@]3(O)[C@@H](O)[C@@H]1C(C)(C)CC[C@@H]2O [ORIDONIN]	1290 µg/mL	IC50 [10]: 6600 nM
O=C1NC(=O)C(c2ccccc2)(c2ccccc2)N1 [PHENYTOIN]		Therm_solubility [1]: 20000 µg/mL
Cn1nnc(-c2ccc(-c3ccc(N4C[C@H](COP(=O)(O)O)OC4=O)cc3F)cn2)n1 [TEDIZOLID PHOSPHATE]	50000 µg/mL	
Cn1nnc(-c2ccc(-c3ccc(N4C[C@H](CO)OC4=O)cc3F)cn2)n1 [TEDIZOLID]	136 µg/mL	
O=C1CCC(N2C(=O)c3ccccc3C2=O)C(=O)N1 (stereo unspecified) [THALIDOMIDE]	52 µg/mL	
